Source: patent US20250221943A1, “POLYDOPAMINE CO-POLYMER NANOPARTICLES” (CAMBRIDGE ENTERPRISE LIMITED, priority 2022, published 2025)

Columns and labels:
PANC-1 [1] = assay: MTS assay cytotoxicity of SN38 and SN38@F127@PDA; format: cell-based, human; settings: PANC-1, MTS, 72 h treatment
Method: (§1) Additionally, the effect of F127@PDA NPs on the viability of AsPC-1, BxPC-3, MIA PaCa-2, PANC-1 and ARPE-19 using MTS assay (Promega, USA.) Cells were seeded into clear 96-well plates containing 2000 cells/well in 100 μL complete growth medium and cultured for 24 h at 37° C. and 5% CO2. Subsequently, cells were treated with varying concentrations of F127@PDA_40, F127@PDA_60 and F127@PDA_100 (0.01-100 μg/mL) dissolved in complete growth media containing 0.1% water. After further 72 h incubation at 37° C. and 5% CO2, 20 μL of CelTiter 96® AQueous One Solution (Promega, USA) was added into each well and incubated at 37° C., 5% CO2 for 1-4 h, according to the manufacturer's instruction. The absorbance of each well was measured at 490 nm using a Spark plate reader (TECAN, CH). Control measurements included negative control of cells with DMEM, cells with DMEM containing 0.1% water, cell-free culture media (blank) and cell-free sample dilutions in culture media to evaluate potential sample interferences with MTS reagent. All experiments were conducted in biological triplicates. The percentage cell viability was calculated according to the following:
(§2) Cells were seeded into 96-well plates at concentration of 2000 cells/well, in 100 μl of complete growth medium and incubated at 37 C, 5% CO2 for 24 h. After overnight incubation, the cells were treated with SN38 and the same concentration of SN38@F127@PDA using various concentrations (0.0001 μM-1 μM). The plates were inserted into the IncuCyte®S3 Live-Cell Analysis System (Sartorius) for real-time imaging. Treated plates were imaged every 3 h for 72 h under cell culture conditions with 10× objective using the brightfield channel. Average cell confluence was calculated as described in the previous section. In addition to live cell imaging after 72 h incubation in the IncuCyte®S3 MTS assay was performed as described in the section above.

BxPC-3 [2] = assay: MTS assay cytotoxicity of SN38 and SN38@F127@PDA; format: cell-based, human; settings: BxPc-3, MTS, 72 h treatment
Method: as §1, §2

MIA PaCa-2 [3] = assay: MTS assay cytotoxicity of SN38 and SN38@F127@PDA; format: cell-based, human; settings: MIA PaCa-2, MTS, 72 h treatment
Method: as §1, §2

AsPC-1 [4] = assay: MTS assay cytotoxicity of SN38 and SN38@F127@PDA; format: cell-based, human; settings: AsPC-1, MTS, 72 h treatment
Method: as §1, §2

PANC-1 [5] = assay: Live-cell imaging (IncuCyte) cytotoxicity of SN38 and SN38@F127@PDA; format: cell-based, human; settings: PANC-1, live-cell imaging, 72 h treatment
Method: (§3) All NPs were tested for cytotoxicity studies in AsPC-1, BxPC-3, MIA-PaCa-2, PANC-1 and ARPE-19. Cells were seeded into 96-well plates at concentration of 2000 cells/well, in 200 μl of complete growth medium and incubated at 37 C, 5% CO2 for 24 h. After overnight incubation, the cells were treated with different concentration of F127@PDA-40, F127@PDA-60 and F127@PDA-100 (0.01-100 μg/mL) dissolved in complete cell media, the same volume of water was added for the negative control. The plates were then inserted into the IncuCyte®S3 Live-Cell Analysis System (Sartorius) for real-time imaging. Treated plates were imaged every 3 h for 72 h under cell culture conditions with 10× objective using the brightfield channel. Mean cell confluence was calculated using the images taken from 3 random fields of view per well using the IncuCyte S3 v2017A software. All Incucyte experiments were performed in triplicate in three independent experiments. Relative confluence values were obtained by normalizing each value to the time zero value in each sample and normalised to the untreated control sample.
as §2

BxPC-3 [6] = assay: as above; format: cell-based, human; settings: BxPc-3, live-cell imaging, 72 h treatment
Method: as §3, §2

MIA PaCa-2 [7] = assay: as above; format: cell-based, human; settings: MIA PaCa-2, live-cell imaging, 72 h treatment
Method: as §3, §2

AsPC-1 [8] = assay: as above; format: cell-based, human; settings: AsPC-1, live-cell imaging, 72 h treatment
Method: as §3, §2

[9] = Loading content by UV-Vis; format: physicochemical; settings: for loading content of the drug in F127@PDA NPs: physical adsorption, conventional method
Method: F127@PDA NPs (5 mg) was dissolved in 10 mM Tris buffer (5 mL) and Fluorescein-TEG-NH2 (10 mg, 2 wt eq.) dissolved in 0.5 mL ethanol was added dropwise. The mixture was protected from direct sunlight and stirred over night at room temperature. Excess Fluorescein-TEG-NH2 was removed washing with Milli-Q water using Vivaspin 20 (Satorius, UK) centrifugal concentrators (10 kDa MWCO) for 15 min at 4000 rpm until the supernatant was colourless, followed by 3 days dialysis against water with 12-14 kDa MWCO dialysis bags.
To assess the loading capacity, absorption of SN38 was investigated adapting a method by Wang et al.^[90] A suspension of 10 mg F127@PDA NPs (1 mg/mL) and 2.5 mg SN38 (0.25 wt eq.) in DMSO:H2O=1:10 (10 mL) were sonicated for 30 min, followed by stirring at room temperature for 72 hours. To remove free drug, the reaction mixture was first centrifuged at 2000 rpm for 5 min. The supernatant was collected and washed with Milli-Q water using Vivaspin 20 (Satorius, UK) centrifugal concentrators (10 kDa MWCO) for 15 min at 4000 rpm. The obtained particles were diluted in Milli-Q water, frozen in liquid nitrogen and lyophilised to yield a dark brown powder. The loading content of SN38 within the NPs was determined using UV-Vis. The absorbance of SN38@F127@PDA NPs at 382 nm was deducted by the F127@PDA absorbance and the loading content was calculated according to the following equation: (3).^[98]
F127@PDA NPs (5 mg) was dissolved in 10 mM Tris buffer (5 mL) and the corresponding ligand 4-6 (10 mg, 2 wt eq.) dissolved in 0.5 mL ethanol was added dropwise. The mixture was protected from direct sunlight and stirred over night at room temperature. […]
A suspension of 10 mg F127@PDA NPs (1 mg/mL) and 2.5 mg of the corresponding drug (0.25 wt eq.) in DMSO:H2O=1:10 (10 mL) were sonicated for 30 min, followed by stirring at room temperature for 72 hours. […] The loading content of Gem and PTX within the NPs was determined using UV-Vis. The absorbance of the free drug in the supernatant was measured and the loading content was calculated according to the following equation: […]

`CCc1c2c(nc3ccc(O)cc13)-c1cc3c(c(=O)n1C2)COC(=O)[C@]3(O)CC` [SN38] showed an IC50 (PANC-1 [1]) of 0.113 µM, an IC50 (BxPC-3 [2]) of 0.056 µM and an IC50 (MIA PaCa-2 [3]) of 0.0131 µM. The IC50 (AsPC-1 [4]) was 0.11 µM, the IC50 (PANC-1 [5]) was 0.0561 µM and the IC50 (BxPC-3 [6]) was 0.00891 µM. The IC50 (MIA PaCa-2 [7]) was 0.0121 µM and the IC50 (AsPC-1 [8]) was 0.0529 µM.

In the case of `CC(=O)O[C@H]1C(=O)[C@@]2(C)[C@H]([C@H](OC(=O)c3ccccc3)[C@]3(O)C[C@H](OC(=O)[C@H](O)[C@@H](NC(=O)c4ccccc4)c4ccccc4)C(C)=C1C3(C)C)[C@]1(OC(C)=O)CO[C@@H]1C[C@@H]2O` [PTX, Paclitaxel], the “loading content of the drug in F127@PDA NPs” value [9] is reported as 14.3±4.7 % (w/w).

With `Nc1ccn([C@@H]2O[C@H](CO)[C@@H](O)C2(F)F)c(=O)n1` [Gem, Gemcitabine] the “loading content of the drug in F127@PDA NPs” value [9] was 11.5±5.7 % (w/w).

For “TAMRA-CONH—PKKKRKVC—COOH ({TAMRA}-PKKKRKVC-OH) [TAMRA-NLS]”, the “loading content (w/w) of the ligand on functionalized F127@PDA NPs” value ([9]; Michael addition post-functionalization) was 3%.
